The text below walks through data of patent US7230001B1, “Arylalkane, arylalkene and aryl azaalkane, medicaments containing said compounds and method for the production thereof” (Boehringer Ingelheim Pharma GmbH & Co. KG, priority 1999, dated 2007).

A value given as a limit tells only on which side of the number the result lay.

As for `CNc1ccc(C(=O)CCC(=O)N2CCC(N3Cc4ccccc4NC3=O)CC2)cc1[N+](=O)[O-]` [compound 27, 3,4-dihydro-3-{1-[1,4-dioxo-4-(4-methylamino-3-nitrophenyl)butyl]-4-piperidinyl}-2(1H)-quinazolinone], the melting point was 258 to 259 °C (dec.).

Compound `O=C(CCC(=O)N1CCC(N2Cc3ccccc3NC2=O)CC1)c1cc(Br)cc(Br)c1` [compound 65, 3-{1-[4-(3,5-dibromophenyl)-1,4-dioxobutyl]-4-piperidinyl}-3,4-dihydro-2(1H)-quinazolinone] yielded a melting point of 212 to 214 °C. For `COc1cc2c(cc1OC)NC(=O)N(C1CCN(C(=O)CCC(=O)c3cc(Br)c(N)c(Br)c3)CC1)C2` [compound 29, 3-{1-[4-(4-amino-3,5-dibromophenyl)-1,4-dioxobutyl]-4-piperidinyl}-3,4-dihydro-6,7-dimethoxy-2(1H)-quinazolinone] the value was 256 to 258 °C; for `CC(=O)Nc1ccc(C(=O)CCC(=O)N2CCC(n3cc(-c4ccccc4)[nH]c3=O)CC2)cc1Br` [compound 21, 1-{1-[4-(4-acetylamino-3-bromophenyl)-1,4-dioxobutyl]-4-piperidinyl}-1,3-dihydro-4-phenyl-2(2H)-imidazolone], 243 °C. `N#Cc1ccc(C(=O)CCC(=O)N2CCC(N3Cc4ccccc4NC3=O)CC2)cc1` [compound 72, 3-{1-[4-(4-cyanophenyl)-1,4-dioxobutyl]-4-piperidinyl}-3,4-dihydro-2(1H)-quinazolinone] returned a melting point of 191 to 193 °C.

`O=C(CCC(=O)N1CCC(N2Cc3ccccc3NC2=O)CC1)c1ccc(Cl)cc1` [compound 26, 3,4-dihydro-3-{1-[4-(4-chlorophenyl)-1,4-dioxobutyl]-4-piperidinyl}-2(1H)-quinazolinone] showed a melting point of 237 to 238 °C.

`CC(=O)Nc1ccc(C(=O)CCC(=O)N2CCC(n3c(=O)[nH]c4ccccc43)CC2)cc1Br` [compound 19, 1-{1-[4-(4-acetylamino-3-bromophenyl)-1,4-dioxobutyl]-4-piperidinyl}-1,3-dihydro-2(2H)-benzimidazolone] yielded a melting point of 128 °C.

Regarding `COc1ccc(C(=O)CCC(=O)N2CCC(N3Cc4ccccc4NC3=O)CC2)cc1` [compound 25, 3,4-dihydro-3-{1-[1,4-dioxo-4-(4-methoxyphenyl)butyl]-4-piperidinyl}-2(1H)-quinazolinone], the melting point was in the range of 171 to 172 °C. `Nc1c(Br)cc(CCCC(=O)N2CCC(n3cc(-c4ccccc4)[nH]c3=O)CC2)cc1Br` [compound 64, 1-{1-[4-(4-amino-3,5-dibromophenyl)-1-oxobutyl]-4-piperidinyl}-1,3-dihydro-4-phenyl-2(2H)-imidazolone] came in with a melting point of 162.5 to 163.5 °C. `O=C(CCC(=O)N1CCC(N2Cc3ccccc3NC2=O)CC1)c1ccc(Cl)c([N+](=O)[O-])c1` [compound 28, 3,4-dihydro-3-{1-[4-(4-chloro-3-nitrophenyl)-1,4-dioxo-butyl]-4-piperidinyl}-2(1H)-quinazolinone] registered a melting point of 207 to 209 °C. `O=C(CCC(=O)N1CCC(N2Cc3ccccc3NC2=O)CC1)c1ccc(F)cc1` [compound 67, 3-{1-[1,4-dioxo-4-(4-fluorophenyl)butyl]-4-piperidinyl}-3,4-dihydro-2(1H)-quinazolinone] came in with a melting point of 164 to 166 °C. Consider `Nc1c(Br)cc(C(=O)CCC(=O)N2CCN(c3nc4ccccc4[nH]c3=O)CC2)cc1Br` [compound 61, 3-{1-[4-(4-amino-3,5-dibromophenyl)-1,4-dioxobutyl]-4-piperazinyl}-2(1H)-quinoxalinone], for which the melting point was in the range of 246 to 252 °C. The result for `Nc1c(Br)cc(C(=O)CCC(=O)N2CCC(N3Cc4cccnc4NC3=O)CC2)cc1Br` [compound 13, 3-{1-[4-(4-amino-3,5-dibromophenyl)-1,4-dioxobutyl]-4-piperidinyl}-3,4-dihydro-2(1H)-pyrido[2,3-d]pyrimidinone] reads over 225 °C. `COc1ccccc1C(=O)CCC(=O)N1CCC(N2Cc3ccccc3NC2=O)CC1` [compound 66, 3-{1-[1,4-dioxo-4-(2-methoxyphenyl)butyl]-4-piperidinyl}-3,4-dihydro-2(1H)-quinazolinone] showed a melting point of 174 to 175 °C.

In turn, `O=C(CCC(=O)N1CCC(N2Cc3ccccc3NC2=O)CC1)c1ccc(-c2ccccc2)cc1` [compound 62, 3-{1-[4-(4-biphenylyl)-1,4-dioxobutyl]-4-piperidinyl}-3,4-dihydro-2(1H)-quinazolinone] yielded a melting point of 200 °C. For the compound `Nc1ccc(C(=O)CCC(=O)N2CCC(n3cc(-c4ccccc4)[nH]c3=O)CC2)cc1Br` [compound 24, 1-{1-[4-(4-amino-3-bromophenyl)-1,4-dioxobutyl]-4-piperidinyl}-1,3-dihydro-4-phenyl-2(2H)-imidazolone], the melting point is 267 °C. As for `Nc1c(Br)cc(C(=O)CCC(=O)N2CCN(c3cc4ccccc4[nH]c3=O)CC2)cc1Br` [compound 59, 3-{1-[4-(4-amino-3,5-dibromophenyl)-1,4-dioxobutyl]-4-piperazinyl}-2(1H)-quinolinone], the melting point is 272 to 274 °C (dec.).

`CC(=O)Nc1ccc(C(=O)CCC(=O)N2CCC(N3Cc4ccccc4NC3=O)CC2)cc1Br` [compound 18, 3-{1-[4-(4-acetylamino-3-bromophenyl)-1,4-dioxobutyl]-4-piperidinyl}-3,4-dihydro-2(1H)-quinazolinone]: the melting point was found to be 243 °C. The compound `Nc1c(Br)cc(C(=O)CCC(=O)N2CCC(N3Cc4ccncc4NC3=O)CC2)cc1Br` [compound 42, 3-{1-[4-(4-amino-3,5-dibromophenyl)-1,4-dioxobutyl]-4-piperidinyl}-3,4-dihydro-2(1H)-pyrido[3,4-d]pyrimidinone] registered a melting point of over 250 °C.

On to `Nc1c(Br)cc(C(=O)CCC(=O)N2CCC(N3Cc4cnccc4NC3=O)CC2)cc1Br` [compound 43, 3-{1-[4-(4-amino-3,5-dibromophenyl)-1,4-dioxobutyl]-4-piperidinyl}-3,4-dihydro-2(1H)-pyrido[4,3-d]pyrimidinone], for which the melting point was over 250 °C.
